BindingDB's records for doi:10.1021/acsmedchemlett.0c00015 (The Genomics Institute of The Novartis Research Foundation, 2020)

What was measured:
[1] = Inhibition of MET (unknown origin) transfected in mouse Ba/F3 cells assessed as reduction in cell viability incubated for 48 hrs by brightglo-luciferase reporter gene assay
[2] = Inhibition of KDR (unknown origin) transfected in mouse Ba/F3 cells assessed as reduction in cell viability incubated for 48 hrs by brightglo-luciferase reporter gene assay
[3] = Inhibition of TRKA (unknown origin) transfected in mouse Ba/F3 cells assessed as reduction in cell viability incubated for 48 hrs by brightglo-luciferase reporter gene assay
[4] = Inhibition of LCK (unknown origin) transfected in mouse Ba/F3 cells assessed as reduction in cell viability incubated for 48 hrs by brightglo-luciferase reporter gene assay
[5] = Inhibition of ROS (unknown origin) transfected in mouse Ba/F3 cells assessed as reduction in cell viability incubated for 48 hrs by brightglo-luciferase reporter gene assay
[6] = Inhibition of NPM/ALK (unknown origin) transfected in mouse Ba/F3 cells assessed as reduction in cell viability incubated for 48 hrs by brightglo-luciferase reporter gene assay
[7] = Inhibition of MER (unknown origin) transfected in mouse Ba/F3 cells assessed as reduction in cell viability incubated for 48 hrs by brightglo-luciferase reporter gene assay
[8] = Inhibition of FGR (unknown origin) transfected in mouse Ba/F3 cells assessed as reduction in cell viability incubated for 48 hrs by brightglo-luciferase reporter gene assay
[9] = Inhibition of PDGFRbeta (unknown origin) transfected in mouse Ba/F3 cells assessed as reduction in cell viability incubated for 48 hrs by brightglo-luciferase reporter gene assay
[10] = Inhibition of SYK (unknown origin) transfected in mouse Ba/F3 cells assessed as reduction in cell viability incubated for 48 hrs by brightglo-luciferase reporter gene assay
[11] = Inhibition of SRC (unknown origin) transfected in mouse Ba/F3 cells assessed as reduction in cell viability incubated for 48 hrs by brightglo-luciferase reporter gene assay
[12] = Inhibition of ZAP70 (unknown origin) transfected in mouse Ba/F3 cells assessed as reduction in cell viability incubated for 48 hrs by brightglo-luciferase reporter gene assay
[13] = Inhibition of BMX (unknown origin) transfected in mouse Ba/F3 cells assessed as reduction in cell viability incubated for 48 hrs by brightglo-luciferase reporter gene assay
[14] = Inhibition of KIF5B-RET V804M mutant (unknown origin) transfected in mouse Ba/F3 cells assessed as reduction in cell viability incubated for 48 hrs by brightglo-luciferase reporter gene assay
[15] = Inhibition of FGFR3 (unknown origin) transfected in mouse Ba/F3 cells assessed as reduction in cell viability incubated for 48 hrs by brightglo-luciferase reporter gene assay
[16] = Inhibition of FLT1 (unknown origin) transfected in mouse Ba/F3 cells assessed as reduction in cell viability incubated for 48 hrs by brightglo-luciferase reporter gene assay
[17] = Inhibition of CCDC6/RET (unknown origin) transfected in human LC2/ad cells assessed as reduction in cell viability incubated for 6 days by CellTiter Glo assay
[18] = Inhibition of FLT3 (unknown origin) transfected in mouse Ba/F3 cells assessed as reduction in cell viability incubated for 48 hrs by brightglo-luciferase reporter gene assay
[19] = Inhibition of JAK2 (unknown origin) transfected in mouse Ba/F3 cells assessed as reduction in cell viability incubated for 48 hrs by brightglo-luciferase reporter gene assay
[20] = Inhibition of FMS (unknown origin) transfected in mouse Ba/F3 cells assessed as reduction in cell viability incubated for 48 hrs by brightglo-luciferase reporter gene assay
[21] = Inhibition of INSR (unknown origin) transfected in mouse Ba/F3 cells assessed as reduction in cell viability incubated for 48 hrs by brightglo-luciferase reporter gene assay
[22] = Inhibition of BLK (unknown origin) transfected in mouse Ba/F3 cells assessed as reduction in cell viability incubated for 48 hrs by brightglo-luciferase reporter gene assay
[23] = Inhibition of TEL/KDR (unknown origin) transfected in mouse Ba/F3 cells assessed as reduction in cell viability incubated for 48 hrs by brightglo-luciferase reporter gene assay
[24] = Inhibition of LYN (unknown origin) transfected in mouse Ba/F3 cells assessed as reduction in cell viability incubated for 48 hrs by brightglo-luciferase reporter gene assay
[25] = Inhibition of TRKB (unknown origin) transfected in mouse Ba/F3 cells assessed as reduction in cell viability incubated for 48 hrs by brightglo-luciferase reporter gene assay
[26] = Inhibition of TYRO3 (unknown origin) transfected in mouse Ba/F3 cells assessed as reduction in cell viability incubated for 48 hrs by brightglo-luciferase reporter gene assay
[27] = Inhibition of RET (unknown origin) transfected in mouse Ba/F3 cells assessed as reduction in cell viability incubated for 48 hrs by brightglo-luciferase reporter gene assay
[28] = Inhibition of PDGFRalpha (unknown origin) transfected in mouse Ba/F3 cells assessed as reduction in cell viability incubated for 48 hrs by brightglo-luciferase reporter gene assay
[29] = Inhibition of TRKC (unknown origin) transfected in mouse Ba/F3 cells assessed as reduction in cell viability incubated for 48 hrs by brightglo-luciferase reporter gene assay
[30] = Inhibition of RON (unknown origin) transfected in mouse Ba/F3 cells assessed as reduction in cell viability incubated for 48 hrs by brightglo-luciferase reporter gene assay
[31] = Inhibition of FGFR1 (unknown origin) transfected in mouse Ba/F3 cells assessed as reduction in cell viability incubated for 48 hrs by brightglo-luciferase reporter gene assay
[32] = Inhibition of FGFR2 (unknown origin) transfected in mouse Ba/F3 cells assessed as reduction in cell viability incubated for 48 hrs by brightglo-luciferase reporter gene assay
[33] = Inhibition of KIF5B-RET (unknown origin) transfected in mouse Ba/F3 cells assessed as reduction in cell viability incubated for 48 hrs by brightglo-luciferase reporter gene assay
[34] = Inhibition of TIE1 (unknown origin) transfected in mouse Ba/F3 cells assessed as reduction in cell viability incubated for 48 hrs by brightglo-luciferase reporter gene assay
[35] = Inhibition of FGFR4 (unknown origin) transfected in mouse Ba/F3 cells assessed as reduction in cell viability incubated for 48 hrs by brightglo-luciferase reporter gene assay
[36] = Inhibition of IGF1R (unknown origin) transfected in mouse Ba/F3 cells assessed as reduction in cell viability incubated for 48 hrs by brightglo-luciferase reporter gene assay
[37] = Inhibition of KIT (unknown origin) transfected in mouse Ba/F3 cells assessed as reduction in cell viability incubated for 48 hrs by brightglo-luciferase reporter gene assay

Compound | IC50 [1] [nM] | IC50 [2] [nM] | IC50 [3] [nM] | IC50 [4] [nM] | IC50 [5] [nM] | IC50 [6] [nM] | IC50 [7] [nM] | IC50 [8] [nM] | IC50 [9] [nM] | IC50 [10] [nM] | IC50 [12] [nM] | IC50 [13] [nM] | IC50 [14] [nM] | IC50 [15] [nM] | IC50 [16] [nM] | IC50 [18] [nM] | IC50 [19] [nM] | IC50 [20] [nM] | IC50 [21] [nM] | IC50 [22] [nM] | other results
COc1ccc(-c2cnn3c(N)c(-c4ccccc4)c(OC4CCN(C)CC4)nc23)cc1OC | > 11000 | > 11000 | > 11000 | 110 | > 11000 | 8300 | > 11000 | 98 | 100 | 7600 | > 11000 | > 11000 | 1800 | > 9800 | > 11000 | 1700 | > 1300 | 400 | > 11000 | 520 | IC50 [11]: 120 nM; IC50 [17]: 95 nM; IC50 [23]: 1400 nM; IC50 [24]: 410 nM; IC50 [25]: > 11000 nM; IC50 [26]: > 11000 nM; IC50 [27]: 170 nM; IC50 [28]: 93 nM; IC50 [29]: > 11000 nM; IC50 [30]: > 11000 nM; IC50 [31]: > 5600 nM; IC50 [32]: 3700 nM; IC50 [33]: 37 nM; IC50 [34]: > 11000 nM; IC50 [35]: > 11000 nM; IC50 [36]: > 11000 nM
COC(=O)Nc1ccc(-c2c(OC3CCN(C)CC3)nc3c(-c4ccc(OC)c(OC)c4)cnn3c2N)cc1 | > 11000 | 26 | 2800 | 2400 | 5500 | 1200 | 86 | 440 | 22 | 1400 | 9100 | > 7400 | 19 | 430 | 3000 | 3400 | 84 | 82 | > 9100 | 230 | IC50 [37]: 20 nM; IC50 [24]: 67 nM; IC50 [25]: 2100 nM; IC50 [26]: 3700 nM; IC50 [27]: 6 nM; IC50 [28]: 17 nM; IC50 [29]: 1400 nM; IC50 [30]: 6000 nM; IC50 [31]: 10 nM; IC50 [32]: 8 nM; IC50 [33]: 6 nM; IC50 [34]: > 10000 nM; IC50 [35]: 35 nM; IC50 [36]: > 7500 nM
